Patent US20080075788A1, “DIAMMONIUM PHOSPHATE AND OTHER AMMONIUM SALTS AND THEIR USE IN PREVENTING CLOTTING” (priority 2006, published 2008)
Where two headings read alike, the source gives them in different places.

Experiments:
whole sheep blood = conditions: liquid component added to blood, versus control
Method: (§1) Coagulation time of fresh whole blood can be determined with the Lee-White test by visually observing clot formation. Activation of the intrinsic coagulation pathway can be determined by measuring the activated partial thromboplastin time (APTT) as for example, shown in the FIGURE. In this test, the time to formation of a fibrin clot in re-calcified citrated plasma is measured using a coagulation analyzer instrument.

human plasma = conditions: for effect on the clotting time of human plasma: APTT test; for APTT Average: average of subjects
Method: as §1
Clotting times of plasma samples were measured using the Amelung KC 4 A™ micro coagulation analyzer (Sigma Diagnostics, Germany). A cuvette was placed into a rotating well of the analyzer and a small stainless steel ball was dispensed into the cuvette. 100 μL of Pathromtin SL reagent were dispensed into the cuvette and then 100 μL of human plasma were added. For trials with the solution, 10 μL of water or of a solution dilution were added. After 2 minutes of incubation, 100 μL of CaCl2 were dispensed into each cuvette. The analyzer timer was started immediately and clotting time was recorded when the timer stopped.
On each day, control plasma N (normal) and control plasma P (abnormal/prolonged) were tested for quality control. At least two identical samples (duplicates) were tested simultaneously for each trial. The means and percent differences between duplicates were calculated. If the difference between duplicates was twenty percent or less, that trial's data was used for further analysis.

[1] = listed as diammonium phosphate solution

## N.N.O=P(O)(O)O [Sample A liquid, diammonium hydrogen-phosphate]
Whole sheep blood; listed as Sample A liquid component
  effect on the Lee-White clotting time of whole sheep blood: prolonged
Whole sheep blood; [1]
  effect on the Lee-White clotting time of whole sheep blood: delay and/or prevent clotting
Human plasma; listed as diammonium hydrogen-phosphate solution
  effect on the clotting time of human plasma: prolongs the clotting time of human plasma
Human plasma; [1]
  effect on the clotting time of human plasma: delay and/or prevent clotting
Human plasma; NH4 Conc. 10 mM in the 310 μL total volume
  APTT Average: 42.7 s
Human plasma; NH4 Conc. 10 mM in the 310 μL total volume, subject 1
  Subject APTT: 49.8 s
Human plasma; NH4 Conc. 10 mM in the 310 μL total volume, subject 2
  Subject APTT: 36.5 s
Human plasma; NH4 Conc. 10 mM in the 310 μL total volume, subject 3
  Subject APTT: 42.6 s
Human plasma; NH4 Conc. 10 mM in the 310 μL total volume, subject 4
  Subject APTT: 42.9 s
Human plasma; NH4 Conc. 10 mM in the 310 μL total volume, subject 5
  Subject APTT: 47.9 s
Human plasma; NH4 Conc. 10 mM in the 310 μL total volume, subject 6
  Subject APTT: 39.0 s
Human plasma; NH4 Conc. 10 mM in the 310 μL total volume, subject 7
  Subject APTT: 32.5 s
Human plasma; NH4 Conc. 10 mM in the 310 μL total volume, subject 8
  Subject APTT: 50.9 s
Human plasma; NH4 Conc. 20 mM in the 310 μL total volume
  APTT Average: 50.8 s
Human plasma; NH4 Conc. 20 mM in the 310 μL total volume, subject 1
  Subject APTT: 64.5 s
Human plasma; NH4 Conc. 20 mM in the 310 μL total volume, subject 2
  Subject APTT: 46.3 s
Human plasma; NH4 Conc. 20 mM in the 310 μL total volume, subject 4
  Subject APTT: 47.3 s
Human plasma; NH4 Conc. 20 mM in the 310 μL total volume, subject 5
  Subject APTT: 62.2 s
Human plasma; NH4 Conc. 20 mM in the 310 μL total volume, subject 6
  Subject APTT: 38.0 s
Human plasma; NH4 Conc. 20 mM in the 310 μL total volume, subject 7
  Subject APTT: 37.7 s
Human plasma; NH4 Conc. 20 mM in the 310 μL total volume, subject 8
  Subject APTT: 59.7 s
Human plasma; NH4 Conc. 30 mM in the 310 μL total volume
  APTT Average: 67.6 s
Human plasma; NH4 Conc. 30 mM in the 310 μL total volume, subject 1
  Subject APTT: 79.8 s
Human plasma; NH4 Conc. 30 mM in the 310 μL total volume, subject 2
  Subject APTT: 52.8 s
Human plasma; NH4 Conc. 30 mM in the 310 μL total volume, subject 3
  Subject APTT: 64.2 s
Human plasma; NH4 Conc. 30 mM in the 310 μL total volume, subject 4
  Subject APTT: 64.6 s
Human plasma; NH4 Conc. 30 mM in the 310 μL total volume, subject 5
  Subject APTT: 86.9 s
Human plasma; NH4 Conc. 30 mM in the 310 μL total volume, subject 6
  Subject APTT: 58.5 s
Human plasma; NH4 Conc. 30 mM in the 310 μL total volume, subject 7
  Subject APTT: 57.5 s
Human plasma; NH4 Conc. 30 mM in the 310 μL total volume, subject 8
  Subject APTT: 76.4 s
Human plasma; NH4 Conc. 40 mM in the 310 μL total volume
  APTT Average: 185.2 s
Human plasma; NH4 Conc. 40 mM in the 310 μL total volume, subject 1
  Subject APTT: 236.5 s
Human plasma; NH4 Conc. 40 mM in the 310 μL total volume, subject 4
  Subject APTT: 154.4 s
Human plasma; NH4 Conc. 40 mM in the 310 μL total volume, subject 5
  Subject APTT: 186.2 s
Human plasma; NH4 Conc. 40 mM in the 310 μL total volume, subject 6
  Subject APTT: 111.9 s
Human plasma; NH4 Conc. 40 mM in the 310 μL total volume, subject 7
  Subject APTT: 166.2 s
Human plasma; NH4 Conc. 40 mM in the 310 μL total volume, subject 8
  Subject APTT: 255.8 s
Whole human blood
  effect on clotting in whole human blood: delay and/or prevent clotting
